Source: patent US20240092784A1, “CONDENSED HETEROCYCLIC COMPOUND” (NISSAN CHEMICAL CORPORATION, priority 2020, published 2024)

biological target: human SPR (Homo sapiens (Human), UniProt P35270); assay: Evaluation Example 2: Measurement of human SPR inhibitory activity (seven concentrations, sepiapterin absorbance at 420 nm); assay type: biochemical; settings: Evaluation Example 2, seven concentrations 0.14 nM to 100 nM, 240 minutes at room temperature, read-out: IC50
Method in brief: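 His-tagged full-length human SPR (1-261) was expressed in E. coli and the tag removed. Enzyme at 150 ng/mL in 100 mM Tris-HCl pH 7.5/0.01% BSA was mixed with compound (0.14–100 nM, seven points), 120 μM sepiapterin and 160 μM NADPH, both as added-solution concentrations. After 240 min at room temperature, remaining sepiapterin was read at 420 nm to give percent inhibition.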

Sequence of human SPR (P35270 whole entry): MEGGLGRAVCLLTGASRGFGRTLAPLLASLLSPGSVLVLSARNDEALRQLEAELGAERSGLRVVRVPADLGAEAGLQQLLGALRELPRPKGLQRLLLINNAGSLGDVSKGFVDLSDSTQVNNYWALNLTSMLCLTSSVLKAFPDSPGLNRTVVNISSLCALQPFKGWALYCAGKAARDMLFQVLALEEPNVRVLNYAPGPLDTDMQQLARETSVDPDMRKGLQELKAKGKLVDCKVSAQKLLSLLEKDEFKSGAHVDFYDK

Row | SMILES | IC50
1 | C[C@H]1COCCN1C(=O)/C=C/c1cnn2c(O)c(C(=O)NC3CC3)c(=O)n(CC3(C)CC3)c12 [Synthesis Example 369, (S,E)-N-Cyclopropyl-7-hydroxy-4-((1-methylcyclopropyl)methyl)-3-(3-(3-methylmorpholino)-3-oxoprop-1-en-1-yl)-5-oxo-4,5-dihydropyrazolo[1,5-a]pyrimidine-6-carboxamide] | 0.58 nM
2 | C[C@@H]1COCCN1C(=O)/C=C/c1cnn2c(O)c(C(=O)NC3CC3)c(=O)n(CC3(C)CC3)c12 [Synthesis Example 370, (R,E)-N-Cyclopropyl-7-hydroxy-4-((1-methylcyclopropyl)methyl)-3-(3-(3-methylmorpholino)-3-oxoprop-1-en-1-yl)-5-oxo-4,5-dihydropyrazolo[1,5-a]pyrimidine-6-carboxamide] | 0.54 nM
3 | COC[C@H]1COCCN1C(=O)/C=C/c1cnn2c(O)c(C(=O)NC3CC3)c(=O)n(CC3(C)CC3)c12 [Synthesis Example 371, (S,E)-N-Cyclopropyl-7-hydroxy-3-(3-(3-(methoxymethyl)morpholino)-3-oxoprop-1-en-1-yl)-4-((1-methylcyclopropyl)methyl)-5-oxo-4,5-dihydropyrazolo[1,5-a]pyrimidine-6-carboxamide] | 0.61 nM
4 | COC[C@@H]1COCCN1C(=O)/C=C/c1cnn2c(O)c(C(=O)NC3CC3)c(=O)n(CC3(C)CC3)c12 [Synthesis Example 372, (R,E)-N-Cyclopropyl-7-hydroxy-3-(3-(3-(methoxymethyl)morpholino)-3-oxoprop-1-en-1-yl)-4-((1-methylcyclopropyl)methyl)-5-oxo-4,5-dihydropyrazolo[1,5-a]pyrimidine-6-carboxamide] | 0.55 nM
5 | CC1(Cn2c(=O)c(C(=O)NC3CC3)c(O)n3ncc(/C=C/C(=O)N4C[C@H]5C[C@@H]4CO5)c23)CC1 [Synthesis Example 373] | 0.74 nM
6 | CC1(Cn2c(=O)c(C(=O)NC3CC3)c(O)n3ncc(/C=C/C(=O)N4C[C@@H]5C[C@H]4CO5)c23)CC1 [Synthesis Example 374] | 0.65 nM
7 | O=C(NC1CC1)c1c(O)n2ncc(/C=C/C(=O)N3C[C@@H]4C[C@H]3CO4)c2n(CC2(F)CC2)c1=O [Synthesis Example 375] | 0.65 nM
8 | O=C(NC1CC1)c1c(O)n2ncc(/C=C/C(=O)N3C4CCC3COC4)c2n(CC2(F)CC2)c1=O [Synthesis Example 376, (E)-3-(3-(3-Oxa-8-azabicyclo[3.2.1]octan-8-yl)-3-oxoprop-1-en-1-yl)-N-cyclopropyl-4-((1-fluorocyclopropyl)methyl)-7-hydroxy-5-oxo-4,5-dihydropyrazolo[1,5-a]pyrimidine-6-carboxamide] | 0.72 nM
9 | O=C(NC1CC1)c1c(O)n2ncc(/C=C/C(=O)N3C[C@H]4C[C@@H]3CO4)c2n(CC2(F)CC2)c1=O [Synthesis Example 377] | 0.78 nM
10 | O=C(NC1CC1)c1c(O)n2ncc(/C=C/C(=O)N3CC4CCC(C3)O4)c2n(CC2(F)CC2)c1=O [Synthesis Example 378, (E)-3-(3-(8-Oxa-3-azabicyclo[3.2.1]octan-3-yl)-3-oxoprop-1-en-1-yl)-N-cyclopropyl-4-((1-fluorocyclopropyl)methyl)-7-hydroxy-5-oxo-4,5-dihydropyrazolo[1,5-a]pyrimidine-6-carboxamide] | 0.79 nM
11 | C[C@H]1COCCN1C(=O)/C=C/c1cnn2c(O)c(C(=O)NC3CC3)c(=O)n(CC3(F)CC3)c12 [Synthesis Example 379, (S,E)-N-Cyclopropyl-4-((1-fluorocyclopropyl)methyl)-7-hydroxy-3-(3-(3-methylmorpholino)-3-oxoprop-1-en-1-yl)-5-oxo-4,5-dihydropyrazolo[1,5-a]pyrimidine-6-carboxamide] | 0.7 nM
12 | C[C@@H]1COCCN1C(=O)/C=C/c1cnn2c(O)c(C(=O)NC3CC3)c(=O)n(CC3(F)CC3)c12 [Synthesis Example 380, (R,E)-N-Cyclopropyl-4-((1-fluorocyclopropyl)methyl)-7-hydroxy-3-(3-(3-methylmorpholino)-3-oxoprop-1-en-1-yl)-5-oxo-4,5-dihydropyrazolo[1,5-a]pyrimidine-6-carboxamide] | 0.76 nM
13 | O=C(NC1CC1)c1c(O)n2ncc(/C=C/C(=O)N3CCOCC3)c2n(CC2CCC2)c1=O [Synthesis Example 381, (E)-4-(Cyclobutylmethyl)-N-cyclopropyl-7-hydroxy-3-(3-morpholino-3-oxoprop-1-en-1-yl)-5-oxo-4,5-dihydropyrazolo[1,5-a]pyrimidine-6-carboxamide] | 0.71 nM
14 | COC[C@H]1COCCN1C(=O)/C=C/c1cnn2c(O)c(C(=O)NC3CC3)c(=O)n(CC3(F)CC3)c12 [Synthesis Example 382, (S,E)-N-cyclopropyl-4-((1-fluorocyclopropyl)methyl)-7-hydroxy-3-(3-(3-(methoxymethyl)morpholino)-3-oxoprop-1-en-1-yl)-5-oxo-4,5-dihydropyrazolo[1,5-a]pyrimidine-6-carboxamide] | 0.87 nM
15 | COC[C@@H]1COCCN1C(=O)/C=C/c1cnn2c(O)c(C(=O)NC3CC3)c(=O)n(CC3(F)CC3)c12 [Synthesis Example 383, (R,E)-N-Cyclopropyl-4-((1-fluorocyclopropyl)methyl)-7-hydroxy-3-(3-(3-(methoxymethyl)morpholino)-3-oxoprop-1-en-1-yl)-5-oxo-4,5-dihydropyrazolo[1,5-a]pyrimidine-6-carboxamide] | 0.82 nM
16 | CC1(Cn2c(=O)c(C(=O)NC3CC3)c(O)n3ncc(/C=C/C(=O)N4CCOCC4)c23)CCOCC1 [Synthesis Example 386, (E)-N-Cyclopropyl-7-hydroxy-4-((4-methyltetrahydro-2H-pyran-4-yl)methyl)-3-(3-morpholino-3-oxoprop-1-en-1-yl)-5-oxo-4,5-dihydropyrazolo[1,5-a]pyrimidine-6-carboxamide] | 0.6 nM
17 | O=C(NC1CC1)c1c(O)n2ncc(/C=C/C(=O)N3CCOCC3)c2n(CC2CC2)c1=O [Synthesis Example 387, (E)-N-Cyclopropyl-4-(cyclopropylmethyl)-7-hydroxy-3-(3-morpholino-3-oxoprop-1-en-1-yl)-5-oxo-4,5-dihydropyrazolo[1,5-a]pyrimidine-6-carboxamide] | 0.86 nM
18 | CC(C)(F)Cn1c(=O)c(C(=O)NC2CC2)c(O)n2ncc(/C=C/C(=O)N3CCOCC3)c12 [Synthesis Example 390, (E)-N-Cyclopropyl-4-(2-fluoro-2-methylpropyl)-7-hydroxy-3-(3-morpholino-3-oxoprop-1-en-1-yl)-5-oxo-4,5-dihydropyrazolo[1,5-a]pyrimidine-6-carboxamide] | 0.71 nM
19 | CC(C)(C)Cn1c(=O)c(C(=O)NC2CC2)c(O)n2nc3ncccc3c12 [Synthesis Example 391, N-Cyclopropyl-4-hydroxy-1-neopentyl-2-oxo-1,2-dihydropyrido[2′,3′:3,4]pyrazolo[1,5-a]pyrimidine-3-carboxamide] | 0.92 nM
20 | CC(C)(C)Cn1c(=O)c(C(=O)NC2CC2)c(O)n2nc3nccnc3c12 [Synthesis Example 392, N-Cyclopropyl-7-hydroxy-10-neopentyl-9-oxo-9,10-dihydropyrazino[2′,3′:3,4]pyrazolo[1,5-a]pyrimidine-8-carboxamide] | 1.5 nM
21 | COc1ccc2c(n1)nn1c(O)c(C(=O)NC3CC3)c(=O)n(CC(C)(C)C)c21 [Synthesis Example 393, N-Cyclopropyl-4-hydroxy-8-methoxy-1-neopentyl-2-oxo-1,2-dihydropyrido[2′,3′:3,4]pyrazolo[1,5-a]pyrimidine-3-carboxamide] | 1.38 nM
22 | CC(C)(C)Cn1c(=O)c(C(=O)NC2CC2)c(O)n2nc3[nH]c(=O)ccc3c12 [Synthesis Example 394, N-Cyclopropyl-4-hydroxy-1-neopentyl-2,8-dioxo-1,2,7,8-tetrahydropyrido[2′,3′:3,4]pyrazolo[1,5-a]pyrimidine-3-carboxamide] | 0.39 nM
23 | CC(C)(C)Cn1c(=O)c(C(=O)NC2CC2)c(O)n2nc3[nH]ccc3c12 [Synthesis Example 395, N-Cyclopropyl-7-hydroxy-4-neopentyl-5-oxo-4,5-dihydro-1H-pyrrolo[2′,3′:3,4]pyrazolo[1,5-a]pyrimidine-6-carboxamide] | 0.89 nM
24 | CC(C)(C)Cn1c(=O)c(C(=O)NC2CC2)c(O)n2nc3c(c12)CCN3 [Synthesis Example 396, N-Cyclopropyl-7-hydroxy-4-neopentyl-5-oxo-2,3,4,5-tetrahydro-1H-pyrrolo[2′,3′:3,4]pyrazolo[1,5-a]pyrimidine-6-carboxamide] | 1.35 nM
25 | CC(C)(C)Cn1c(=O)c(C(=O)NC2CC2)c(O)n2nc3c(c12)CCN3C(N)=O [Synthesis Example 397, N6-Cyclopropyl-7-hydroxy-4-neopentyl-5-oxo-2,3,4,5-tetrahydro-1H-pyrrolo[2′,3′:3,4]pyrazolo[1,5-a]pyrimidine-1,6-dicarboxamide] | 1.75 nM
26 | CC(C)(C)Cn1c(=O)c(C(=O)NC2CC2)c(O)n2nc3c(c12)CCN3CC(F)(F)F [Synthesis Example 398, N-Cyclopropyl-7-hydroxy-4-neopentyl-5-oxo-1-(2,2,2-trifluoroethyl)-2,3,4,5-tetrahydro-1H-pyrrolo[2′,3′:3,4]pyrazolo[1,5-a]pyrimidine-6-carboxamide] | 6.08 nM
27 | CC(C)Cn1c(=O)c(C(=O)NC2CC2)c(O)n2nc3[nH]ccc3c12 [Synthesis Example 399, N-Cyclopropyl-7-hydroxy-4-isobutyl-5-oxo-4,5-dihydro-1H-pyrrolo[2′,3′:3,4]pyrazolo[1,5-a]pyrimidine-6-carboxamide] | 1.56 nM
28 | CC(C)(C)Cn1c(=O)c(C(=O)NC2CC2)c(O)n2nc3c(c12)COC(=O)N3 [Synthesis Example 400, N-Cyclopropyl-8-hydroxy-5-neopentyl-2,6-dioxo-1,2,5,6-tetrahydro-4H-pyrimido[1′,2′:1,5]pyrazolo[3,4-d][1,3]oxazine-7-carboxamide] | 0.7 nM
